Reference: US6660891B2, “Methods for the production of D-chiro-inositol and the use of D-chiro inositol obtained therefrom” (Insmed Incorporated, priority 2000, dated 2003)

Experiments:
[1] = Stability in concentrated aqueous acid (HCl); type: physicochemical; conditions: about 5 N to 12 N HCl, about 65° C. to about 110° C.; conditions that destroy other sugars and demethylate D-Pinitol
Text: Therefore this single reaction provides D-chiro-inositol that is substantially free of other contaminating carbohydrates, thus eliminating the need for subsequent purification techniques.
One aspect of the invention involves the conversion of […] a concentrated acid. […] Thus a crude D-chiro-inositol composition comprising one or more components where at least 10% (w/w) of the mass is a D-chiro-inositol moiety is subject to concentrated acid in a solution of about 5 N to 12 N HCl at a temperature in the range of about 65° C. to about 110° C. for a period of time.

[2] = tested on: ovulation in women afflicted with polycystic ovary syndrome; conditions: 44 women with PCOS; DCI 1200 mg/day for 6-8 weeks; placebo 27%; cited from earlier work
insulin sensitivity = conditions: oral supplementation, insulin resistant individuals; cited from earlier work
[3] = tested on: glucose tolerance and insulin secretion; conditions: subjects with impaired glucose tolerance; DCI 1200 mg/day for 2 weeks; restored to normal levels; cited from earlier work

## OC1C(O)C(O)C(O)C(O)C1O [DCI, D-chiro-inositol]
[1]
  stability under acidic conditions: stable
[2]
  ovulation, proportion of patients: 86%
Insulin sensitivity
  insulin sensitivity: improves insulin sensitivity
[3]
  glucose tolerance: restored
  insulin secretion: restored
